pKi: −log10 of the molar value.
Assays:
hCA IX = target: T1, hCA IX (Homo sapiens, UniProt Q16790); assay: stopped-flow CO2 hydrase assay, hCA IX; format: biochemical; details: mean from 3 different assays, errors ±5–10%
T1 construct: made in house
Procedure: (§1) For each inhibitor, at least six traces of the initial 5–10% of the reaction were used for determining the initial velocity. The uncatalyzed rates were determined in the same manner and subtracted from the total observed rates. Stock solutions of the inhibitor (0.1 mM) were prepared in distilled–deionized water and dilutions up to 0.01 nM were done thereafter with the assay buffer. Inhibitor and enzyme solutions were preincubated together for 15 min at room temperature prior to the assay, allowing the formation of the E–I complex.

hCA II = target: T2, hCA II (Homo sapiens, UniProt P00918); assay: stopped-flow CO2 hydrase assay, hCA II; format: biochemical; details: for pKi: stopped-flow CO2 hydrase assay, mean from 3 different assays, errors ±5–10%
T2 construct: made in house
Procedure: as §1

hCA I = target: T3, hCA I (Homo sapiens, UniProt P00915); assay: stopped-flow CO2 hydrase assay, hCA I; format: biochemical; details: mean from 3 different assays, errors ±5–10%
T3 construct: made in house
Procedure: as §1

hCA XII = target: T4, hCA XII (Homo sapiens, UniProt O43570); assay: stopped-flow CO2 hydrase assay, hCA XII; format: biochemical; details: mean from 3 different assays, errors ±5–10%
T4 construct: made in house
Procedure: as §1

T3 sequence (P00915 whole entry): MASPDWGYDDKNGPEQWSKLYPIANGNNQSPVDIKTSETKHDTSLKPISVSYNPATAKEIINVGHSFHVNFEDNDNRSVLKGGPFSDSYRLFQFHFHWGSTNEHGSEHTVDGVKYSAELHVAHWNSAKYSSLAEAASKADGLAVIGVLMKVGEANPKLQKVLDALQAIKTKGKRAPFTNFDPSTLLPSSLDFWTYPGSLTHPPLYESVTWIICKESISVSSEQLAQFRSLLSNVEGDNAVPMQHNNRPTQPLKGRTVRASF
T4 sequence (O43570 25-354): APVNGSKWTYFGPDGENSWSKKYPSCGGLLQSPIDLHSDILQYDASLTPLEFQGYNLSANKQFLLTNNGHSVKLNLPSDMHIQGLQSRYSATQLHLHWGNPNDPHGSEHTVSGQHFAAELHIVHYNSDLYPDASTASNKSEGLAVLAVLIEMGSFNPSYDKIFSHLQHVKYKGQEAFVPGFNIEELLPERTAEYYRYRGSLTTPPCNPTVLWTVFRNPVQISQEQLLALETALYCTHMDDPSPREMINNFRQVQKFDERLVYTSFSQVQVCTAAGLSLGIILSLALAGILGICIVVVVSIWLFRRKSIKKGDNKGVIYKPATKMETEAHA

| SMILES | melting point [°C] | pKi (hCA IX) | pKi (hCA II) | pKi (hCA I) | pKi (hCA XII) | selectivity index (SI) towards hCA I (hCA II; selectivity for hCA II over hCA I) | selectivity index (SI) compared to hCA IX (hCA II; selectivity for hCA II over hCA IX) | selectivity index (SI) to hCA XII (hCA II; selectivity for hCA II over hCA XII) |
| --- | --- | --- | --- | --- | --- | --- | --- | --- |
| Cn1c(C(=O)Nc2ccc(S(N)(=O)=O)cc2)cc2occc21 [Compound 7a, N-[4-(aminosulfonyl)phenyl]-4-methyl-4H-furo[3,2-b]pyrrole-5-carboxamide] | 273 to 275 | 6.99 | 8.08 | 6.14 | 8.16 | – | – | – |
| NS(=O)(=O)c1ccc(NC(=O)c2cc3occc3n2Cc2ccccc2)cc1 [Compound 7c, N-[4-(aminosulfonyl)phenyl]-4-benzyl-4H-furo[3,2-b]pyrrole-5-carboxamide] | 240 to 241 | 6.56 | 7.43 | 5.45 | 8.34 | – | – | – |
| NS(=O)(=O)c1ccc(NC(=O)c2cc3occc3n2Cc2ccc(Cl)cc2)cc1 [Compound 7f, N-[4-(aminosulfonyl)phenyl]-4-(4-chlorobenzyl)-4H-furo[3,2-b]pyrrole-5-carboxamide] | 237 to 238 | 6.73 | 7.46 | 6.06 | 7.43 | – | – | – |
| Cn1c(C(=O)Nc2ccc(S(N)(=O)=O)cc2)cc2sccc21 [Compound 8a, N-[4-(aminosulfonyl)phenyl]-4-methyl-4H-thieno[3,2-b]pyrrole-5-carboxamide] | 276 to 278 | 7.18 | 8.06 | 6.18 | 7.51 | 75.5 | 7.6 | 3.5 |
| CCn1c(C(=O)Nc2ccc(S(N)(=O)=O)cc2)cc2sccc21 [Compound 8b, N-[4-(aminosulfonyl)phenyl]-4-ethyl-4H-thieno[3,2-b]pyrrole-5-carboxamide] | 248 to 249 | 6.60 | 8.17 | 6.57 | 8.29 | – | – | – |
| NS(=O)(=O)c1ccc(NC(=O)c2cc3sccc3n2Cc2ccccc2)cc1 [Compound 8c, N-[4-(aminosulfonyl)phenyl]-4-benzyl-4H-thieno[3,2-b]pyrrole-5-carboxamide] | 255 to 256 | 6.85 | 8.05 | 6.40 | 8.11 | – | – | – |
| NS(=O)(=O)c1ccc(NC(=O)c2cc3sccc3n2Cc2ccc(Cl)cc2)cc1 [Compound 8f, N-[4-(aminosulfonyl)phenyl]-4-(4-chlorobenzyl)-4H-thieno[3,2-b]pyrrole-5-carboxamide] | 219 to 220 | 7.09 | 7.17 | 6.16 | 8.05 | – | – | – |
| NS(=O)(=O)c1ccc(CCNC(=O)C2=C(c3ccccc3)SCCO2)cc1 [Compound 14b, N-{2-[4-(aminosulfonyl)phenyl]ethyl}-3-phenyl-5,6-dihydro-1,4-oxathiine-2-carboxamide] | 208 to 209 | 6.81 | 8.13 | 7.15 | 8.18 | – | – | – |
| NS(=O)(=O)c1ccc(-c2ccc(/C=c3\sc4nc(-c5cccc(Cl)c5)nn4c3=O)o2)cc1 [Compound 17a, 4-(5-{(Z)-[2-(3-chlorophenyl)-6-oxo[1,3]thiazolo[3,2-b][1,2,4]triazol-5(6H)-ylidene]methyl}-2-furyl)enzenesulfonamide] | 312 to 315 | 6.49 | 7.35 | 5.53 | 8.12 | – | – | – |
| COc1ccc(-c2nc3s/c(=C\c4ccc(-c5ccc(S(N)(=O)=O)cc5)o4)c(=O)n3n2)cc1OC [Compound 17b, 4-(5-{(Z)-[2-(3,4-Dimethoxyphenyl)-6-oxo[1,3]thiazolo[3,2 b][1,2,4]triazol-5(6H)-ylidene]methyl} -2-furyl)benzenesulfonamide] | 294 to 295 | 6.60 | 7.23 | 6.04 | 7.40 | – | – | – |

Results, then the molecule that gave them:

| melting point [°C] | pKi (hCA IX) | pKi (hCA II) | pKi (hCA I) | pKi (hCA XII) | selectivity index (SI) towards hCA I (hCA II; selectivity for hCA II over hCA I) | selectivity index (SI) compared to hCA IX (hCA II; selectivity for hCA II over hCA IX) | selectivity index (SI) to hCA XII (hCA II; selectivity for hCA II over hCA XII) | SMILES |
| --- | --- | --- | --- | --- | --- | --- | --- | --- |
| 240 to 242 | – | – | – | – | – | – | – | NS(=O)(=O)c1ccc(NC(=O)c2cc3occc3n2Cc2ccccc2F)cc1 [Compound 7d, N-[4-(aminosulfonyl)phenyl]-4-(2-fluorobenzyl)-4H-furo[3,2-b]pyrrole-5-carboxamide] |
| 239 to 241 | 6.62 | 7.62 | 6.07 | 7.71 | – | – | – | NS(=O)(=O)c1ccc(NC(=O)c2cc3occc3n2Cc2ccccc2Cl)cc1 [Compound 7e, N-[4-(aminosulfonyl)phenyl]-4-(2-chlorobenzyl)-4H-furo[3,2-b]pyrrole-5-carboxamide] |
| 235 to 237 | 6.77 | 8.06 | 6.18 | 8.09 | – | – | – | NS(=O)(=O)c1ccc(NC(=O)c2cc3sccc3n2Cc2ccccc2F)cc1 [Compound 8d, N-[4-(aminosulfonyl)phenyl]-4-(2-fluorobenzyl)-4H-thieno[3,2-b]pyrrole-5-carboxamide] |
| 269 to 270 | 6.59 | 8.19 | 7.15 | 8.28 | – | – | – | CC1(C(=O)Nc2ccc(S(N)(=O)=O)cc2)Oc2ccccc2NC1=O (stereo not shown) [Compound 11, N-[4-(aminosulfonyl)phenyl]-2-methyl-3-oxo-3,4-dihydro-2H-1,4-benzoxazine-2-carboxamide] |
| – | 6.55 | 8.17 | 7.25 | 8.21 | – | – | – | NS(=O)(=O)c1ccc(NC(=O)C2=C(c3ccccc3)SCCO2)cc1 [Compound 14a, N-[4-(aminosulfonyl)phenyl]-3-phenyl-5,6-dihydro-1,4-oxathiine-2-carboxamide] |

— PMC8398262, “New Sulfanilamide Derivatives Incorporating Heterocyclic Carboxamide Moieties as Carbonic Anhydrase Inhibitors” (Pharmaceuticals, 2021)
